# Literature values as cited in US20060141030A1, “Method and composition for stable and controlled delivery of (-)-hydroxycitric acid” (priority 2003, published 2006).
# What was measured:
# [1] = test system: human hepatoma cell line Hep G2
# test subjects = conditions: chronic administration; resting and exercising conditions
# experimental animals = conditions: single large oral dose or two divided oral doses totaling one fourth of it; high-sugar diet
# middle-aged rats = conditions: 30% fat diet
SMILES,"incorporation of [1,5-14C]citrate into fatty acids and cholesterol ([1]; Hep G2, HCA 0.5 mM or higher, 2.5 h and 18 h incubations)","cholesterol biosynthesis, of the control value ([1]; Hep G2, incorporation from 3H2O) [%]",respiratory exchange ratio (test subjects),reduction in food consumption (experimental animals) [%],protein and fat as percentage of body weight (middle-aged rats)
"O=C(O)CC(O)(C(=O)O)C(O)C(=O)O (single isomer, unassigned; (-)) [HCA, (−)-Hydroxycitric acid]",strongly inhibited,27,significantly lower,≥ 10,–
O=C([O-])CC(O)(C(=O)[O-])C(O)C(=O)[O-].[K+].[K+].[K+] (centres unmarked) [potassium HCA],–,–,–,–,increased protein as a percentage of body weight while reducing fat as a percentage of body weight
